Data on 1 substance can be found in paper PMC4381330, “Identification of a novel selective agonist of PPARγ with no promotion of adipogenesis and less inhibition of osteoblastogenesis” (Scientific Reports, 2015).

One assay concerns PPARγ LBD mutants. Type of assay: cell-based, human. To be noted: compared with wild-type PPARγ LBD. Here is the method: All chemicals were purchased from Sigma-Aldrich (St. Louis, MO, USA). All medium and serum were obtained from Gibco (Invitrogen). […] Mutations in pBIND-PPARγ-LBD were created by site-directed mutagenesis using the Fast Mutagenesis System (TransGen Biotech, Beijing, China).
(§1) The determination of nuclear receptor activation was performed as previously. Briefly, HEK293T cells were transfected with GAL4-pGL4-luc reporter plasmid and pBIND-PPARγ-LBD expression plasmid using Lipofectamine 2000 (Invitrogen) for 6 h before treatment with compounds for 20–24 h. Activity was determined by the Luciferase Assay System (Promega).

For another assay, the system named is 3T3-L1 preadipocytes. Put plainly: Adipogenic differentiation of 3T3-L1 preadipocytes (Oil red O, triglyceride content). Type of assay: cell-based, mouse. The procedure:
3T3-L1 preadipocytes were grown to confluency in DMEM containing 10% CS. At 2 days post-confluency, the cells were stimulated with differentiation medium (DMEM containing 10% FBS, 10 μg/mL insulin, 1 μM dexamethasone, and 0.5 mM IBMX) for 48 h. Then, the cells were exposed in post-differentiation-maintaining medium (DMEM containing 10% FBS and 10 μg/mL insulin) for a further 48 h, which was replaced with expansion medium (DMEM containing 10% FBS) every 2 days after then. Compounds were added to the post-differentiation and expansion medium. At day 4, the cells were harvested for RNA preparation. At Day 8, the cells were fixed with 10% formaldehyde and stained with Oil red O solution. After washing with water, photos were taken. Solubilized dye was quantified at 550 nm. In addition, total triglyceride of the cells was measured by a total TG measurement kit (Applygene, China). Experiments were performed at least three times.

Assay [1] deals with T1, human PPARγ-LBD (corepressor peptide displacement) (Homo sapiens, UniProt P37231).
T1 construct: incubated with GST-fused human PPARγ-LBD, terbium-labeled anti-GST antibody; purchased Invitrogen
T1 sequence (P37231 238-503 limits assumed): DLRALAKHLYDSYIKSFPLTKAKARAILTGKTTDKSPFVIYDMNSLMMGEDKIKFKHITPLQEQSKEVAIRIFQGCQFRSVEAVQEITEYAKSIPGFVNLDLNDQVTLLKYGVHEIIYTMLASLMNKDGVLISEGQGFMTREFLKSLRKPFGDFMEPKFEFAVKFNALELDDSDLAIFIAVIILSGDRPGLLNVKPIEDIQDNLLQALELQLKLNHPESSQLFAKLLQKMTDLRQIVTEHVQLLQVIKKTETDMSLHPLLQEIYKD
Put plainly: LanthaScreen TR-FRET corepressor peptide displacement assay. In kind it is biochemical. The procedure:
PPARγ coregulator peptide interaction assay was performed by the LanthaScreen TR-FRET PPARγ Coactivator Assay Kit (Invitrogen) according to the manufacturer's instructions. Serial concentrations of compounds were incubated with GST-fused human PPARγ-LBD, terbium-labeled anti-GST antibody and fluorescein-labeled peptide for 4 h. The measurement and data calculation were as above.
For orientation: Time-resolved FRET reads energy transfer from a long-lived donor to a nearby acceptor.

The next assay addresses T2, human PPARγ-LBD (Homo sapiens, UniProt P37231).
T2 construct: expressed in transfected cells; host or cells: HEK293T
T2 sequence (P37231 172-476 isoform P37231-2): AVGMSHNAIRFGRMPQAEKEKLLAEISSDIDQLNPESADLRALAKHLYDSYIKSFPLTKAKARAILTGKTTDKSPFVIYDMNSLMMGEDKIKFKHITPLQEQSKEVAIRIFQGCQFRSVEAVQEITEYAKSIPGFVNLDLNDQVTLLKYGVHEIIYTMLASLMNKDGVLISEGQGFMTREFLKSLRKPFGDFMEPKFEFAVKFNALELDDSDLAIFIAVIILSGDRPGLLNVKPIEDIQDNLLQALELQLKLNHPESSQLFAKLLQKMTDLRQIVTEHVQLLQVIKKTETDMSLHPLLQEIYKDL
Put plainly: GAL4-PPARγ-LBD luciferase reporter gene assay in HEK293T cells. In kind it is cell-based. The procedure:
as §1
(In general: In a reporter assay the amount or activity of a reporter protein is the signal.)

Another assay has as its system MC3T3-E1 preosteoblasts. Put plainly: Osteoblastic differentiation of MC3T3-E1 cells (Alizarin red S, Alp activity). In kind it is cell-based. As to conditions: F12016 1, 10, 30 μM. The procedure: MC3T3-E1 cells were cultured in α-MEM to confluency in 24-well plates and then cultured in differentiation medium (α-MEM supplemented with 200 μM ascorbic acid and 10 mM β-glycerophosphate) for 7, 14, and 21 days, which was replaced every 3 days. The cells were treated with DMSO, rosiglitazone, or F12016 at the start of differentiation. At day 8, 15 and 22, total RNA was isolated, and real-time PCR was performed as described below.
Mature osteoblasts were stained with Alizarin red S and Alp activity were measured at day 22. In brief, cells were fixed with 75% ethanol and stained with 40 mM Alizarin red S solution (pH 4.1–4.3) for 10 min. For Alp assay, the cells were harvested and sonicated on ice with two 30s-pulses. Supernatant of lysate was incubated with isopyknic 1.0 mg/ml pNPP (Sigma–aldrich) solution (1 M diethanolamine buffer, 0.5 mM magnesium chloride) for 30 min at 37°C. The reaction was measured at 405 nm. Relative ALP activity was normalized to the protein concentration.

Assay [2] concerns the target T3, CDK5 (substrate Rb protein) (Homo sapiens, UniProt Q00535).
T3 construct: purchased Millipore
Put plainly: In vitro CDK5-mediated phosphorylation of Rb protein. Type of assay: biochemical.

As usually defined, the EC50 is the concentration giving half of the maximal effect.

T3 sequence (Q00535 whole entry): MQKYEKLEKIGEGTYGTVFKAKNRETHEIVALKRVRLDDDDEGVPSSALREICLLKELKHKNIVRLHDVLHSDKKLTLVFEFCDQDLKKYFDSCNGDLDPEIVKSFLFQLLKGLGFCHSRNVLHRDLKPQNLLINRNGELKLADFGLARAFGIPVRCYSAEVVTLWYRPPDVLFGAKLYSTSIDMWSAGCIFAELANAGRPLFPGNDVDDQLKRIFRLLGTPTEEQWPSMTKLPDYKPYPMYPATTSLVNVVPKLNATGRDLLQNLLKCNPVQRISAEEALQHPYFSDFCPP
T3 sequence (Q15078 99-307 partner limits assumed): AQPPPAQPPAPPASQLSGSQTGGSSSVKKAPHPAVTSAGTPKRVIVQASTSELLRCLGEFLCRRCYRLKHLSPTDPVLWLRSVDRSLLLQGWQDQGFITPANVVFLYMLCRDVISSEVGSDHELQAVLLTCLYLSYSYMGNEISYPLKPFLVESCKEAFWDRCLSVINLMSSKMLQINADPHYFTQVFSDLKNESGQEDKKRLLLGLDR

Turning to “2-[2-(1, 2-dimethyl-1H-indol-3-yl)-2-oxo-acetylamino]-benzamide [Compound F12016]”, in the assay on PPARγ LBD mutants, the “activation of R288A, L340A and S342A mutants” value is recorded as “reduced the ability of F12016 to activate PPARγ”; the “activation of S289A, H323A, H449A and Y473A mutants” value was “almost the same activity as the wild-type PPARγ LBD”. For the same substance, the “intracellular triglyceride (TG) content” value in the assay with 3T3-L1 preadipocytes (6 days of stimulation) is listed as “significantly reduced TG accumulation compared with rosiglitazone”. Also, the “TG content of differentiating adipocytes at 30 μM compared with 10 μM” value with 3T3-L1 preadipocytes (F12016 30 μM vs 10 μM) is “significantly less than that of 10 μM”. The “lipid accumulation / intracellular lipid droplets (Oil red O staining)” value with 3T3-L1 preadipocytes (RGZ 0.1, 1, 10 μM, F12016 1, 10, 30 μM) is recorded as “significantly reduced potency to form intracellular lipid droplets”. In the assay with 3T3-L1 preadipocytes (supplementary Figure 2), the “lipid droplet size, F12016 vs rosiglitazone” value is on record as “no significant difference”. Further, the “EC50/IC50 NCoR” value in assay [1] (corepressor peptide NCoR) stood at 4.425 µM. Moreover, the “Efficacy NCoR” value in assay [1] (corepressor peptide NCoR, relative to rosiglitazone) stood at 91%. In addition, the “EC50/IC50 SMRT” value in assay [1] (corepressor peptide SMRT) came to 2.861 µM. Further, the “Efficacy SMRT” value in assay [1] (corepressor peptide SMRT, relative to rosiglitazone) turned out to be 58%. Besides, in assay [1] (dose-dependent, similar degree as rosiglitazone), the “displacement of corepressors NCoR and SMRT” value was “able to efficiently displace corepressors”. For the same substance, the “transcriptional activity of PPARγ” value at human PPARγ-LBD (30 μM F12016, HEK293T) is listed as “significantly induced transcriptional activity of PPARγ”. For the same substance, at human PPARγ-LBD (HEK293T, GAL4-PPARγ-LBD reporter), the “maximal activation of GAL4-PPARγ” value is reported as “approximately 4 fold”. Further, at human PPARγ-LBD (HEK293T, GAL4-PPARγ-LBD reporter, read-out: PPARγ WT EC50 (activation of GAL4-PPARγ)), the EC50 was determined as 3.24 µM. For the same substance, the “PPARγ WT (RGZ %)” value on human PPARγ-LBD (activation relative to rosiglitazone (RGZ)) was 29.08%. Moreover, the “concentration antagonizing rosiglitazone-dependent PPARγ activation” value at human PPARγ-LBD (in presence of 1 μM rosiglitazone, reporter assay) is not below 2.5 µM. In addition, in the assay with MC3T3-E1 preosteoblasts, the “alkaline phosphatase (Alp) activity” value is “less reductions in mineralization and Alp activity”; the “mineralization (Alizarin Red S)” value is given as “less reductions in mineralization”. Besides, in assay [2], the “phosphorylation of CDK5 substrate Rb protein” value is listed as “no effect”.
